One experiment addresses T1, Human CD73 (Homo sapiens, UniProt P21589).
T1 construct: purchased R&D Systems; host or cells: CHO cells
T1 sequence (P21589 27-549): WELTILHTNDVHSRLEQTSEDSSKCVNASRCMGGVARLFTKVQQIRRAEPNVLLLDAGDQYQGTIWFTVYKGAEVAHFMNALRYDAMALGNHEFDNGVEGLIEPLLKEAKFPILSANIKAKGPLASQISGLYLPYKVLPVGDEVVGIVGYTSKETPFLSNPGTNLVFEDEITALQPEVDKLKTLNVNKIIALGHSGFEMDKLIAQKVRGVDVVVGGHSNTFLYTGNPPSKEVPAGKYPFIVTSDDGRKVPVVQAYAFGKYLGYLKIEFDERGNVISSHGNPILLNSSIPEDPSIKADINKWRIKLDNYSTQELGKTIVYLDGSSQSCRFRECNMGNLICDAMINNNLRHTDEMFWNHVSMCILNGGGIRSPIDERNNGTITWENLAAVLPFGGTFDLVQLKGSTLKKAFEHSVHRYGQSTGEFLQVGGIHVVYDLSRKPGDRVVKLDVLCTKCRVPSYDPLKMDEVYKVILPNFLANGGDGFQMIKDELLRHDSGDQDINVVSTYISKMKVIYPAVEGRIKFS
Kind of experiment: CD73 Enzyme Assay (EnzChek PNP/MESG kinetic readout of AMP hydrolysis). Type of experiment: biochemical. The following applies: 0.25 nM hCD73, 25 μM AMP; read-out: CD73 Enzyme Assay IC50. The procedure: A compound of the present disclosure (5 μL) was transferred to a 384-well assay plate. The compound was added in a 15 point, 3-fold serial dilution (300 μM to 0.0002 μM) in DMSO. […] The plate was immediately placed in a plate reader (Synergy 2 or Spark 10), and a reading was taken every minute for 10 to 20 minutes in a kinetic run at 360 nm. The linear portion of the curve was used to determine the observed rate (initial velocity). Low signal controls containing 100 μM adenosine 5′-(α,β-methylene) diphosphate and high signal controls containing no compound were measured for each plate.
IC50 values were calculated using Dotmatics template equation for 4-parameter fit. Results are expressed as % inhibition using the following equation: […]

In experiment [1] the target is T2, CD73 on U138 human neuroglioma cells (Homo sapiens, UniProt P21589).
T2 construct: U138 cells were obtained from ATCC and cultured in DMEM with 10% FBS; host or cells: U138 human neuroglioma cells
T2 sequence (P21589 27-549): T1 sequence (P21589 27-549)
The experiment in a line: CD73 Cell-Based Assay (inorganic phosphate from AMP, malachite green). The following applies: AMP substrate, 2 hours at 37° C., read-out: CD73 Cell-Based assay IC50. The procedure: U138 human neuroglioma cells were used in these experiments. U138 cells were obtained from ATCC and cultured in DMEM with 10% FBS. 2500 cells were seeded into 96-well plate with 100 μL of media the day before the experiment. […] After washing, 100 μL of buffer was added to each well, then 100 μL of a mixture of AMP substrate (200 μM) and diluted compound was added to each well. The cells were incubated at 37° C. (with 5% CO2) for 2 hours. 50 μL of supernatant was transferred to a 96-well assay plate and the concentration of inorganic phosphate was determined using malachite green reagent (R&D System; Cat: DY996).

By IC50 is commonly meant the concentration that inhibits the measured activity by half.

Consider `N#Cc1c(Cl)nc2c(cnn2[C@@H]2O[C@H](COCP(=O)(O)O)[C@@H](O)[C@H]2O)c1NC1CC2CC2C1` (stereo partly shown) [Compound 70], for which the IC50 (on Human CD73; in experiment [1]) was under 10 nM throughout.

On to `N#Cc1nc2c(ccn2[C@@H]2O[C@H](COCP(=O)(O)O)[C@@H](O)[C@H]2O)c(N2CCC(F)(F)C2)c1Cl` [Compound 102], for which the IC50 (on Human CD73; in experiment [1]) was under 10 nM in each case.

Turning to `C[C@@H](Nc1c(C#N)c(Cl)nc2c1ncn2[C@@H]1O[C@H](COP(=O)(O)CP(=O)(O)O)[C@@H](O)[C@@H]1F)c1ccc(F)cc1` [Compound 250], the IC50 (on Human CD73; in experiment [1]) was under 10 nM each time.

For `N#Cc1c(Cl)nc2c(cnn2[C@@H]2O[C@H](COCP(=O)(O)O)[C@@H](O)[C@H]2O)c1NC1CC(F)(F)C1` [Compound 81], the IC50 (at Human CD73; in experiment [1]) was under 10 nM throughout.

`N#Cc1c(Cl)nc2c(cnn2[C@@H]2O[C@H](COCP(=O)(O)O)[C@@H](O)[C@H]2O)c1N1CCC(F)(F)C1` [Compound 62, ((((2R,3S,4R,5R)-5-(6-chloro-5-cyano-4-(3,3-difluoropyrrolidin-1-yl)-1H-pyrazolo[3,4-b]pyridin-1-yl)-3,4-dihydroxytetrahydrofuran-2-yl)methoxy)methyl)phosphonic acid]: the IC50 (on Human CD73; in experiment [1]) was under 10 nM throughout.

Take `N#Cc1c(Cl)nc2c(ccn2[C@@H]2O[C@H](COCP(=O)(O)O)[C@@H](O)[C@H]2O)c1NC1CC2(CCC2)C1` [Compound 155]: the IC50 (on Human CD73; in experiment [1]) was under 10 nM in each case.

Take `N#Cc1c(Cl)nc2c(ccn2[C@@H]2O[C@H](CS(=O)(=O)CP(=O)(O)O)[C@@H](O)[C@H]2O)c1NC1CC2(CC2)C1` [Compound 159]: the IC50 (at Human CD73; in experiment [1]) was under 10 nM each time.

In the case of `N#Cc1c(Cl)nc2c(ccn2[C@@H]2O[C@H](COP(=O)(O)CP(=O)(O)O)[C@@H](O)[C@H]2O)c1NC1CCOC1` (stereo partly shown) [Compound 224], the IC50 (at Human CD73; in experiment [1]) was under 10 nM in each case.

On to `N#Cc1nc2c(ccn2[C@@H]2O[C@H](COCP(=O)(O)O)[C@@H](O)[C@H]2O)c(N2C[C@@H](F)[C@@H](F)C2)c1C#N` [Compound 106], for which the IC50 (at Human CD73; in experiment [1]) was under 10 nM each time.

Consider `N#Cc1c(Cl)nc2c(ccn2[C@@H]2O[C@H](COCP(=O)(O)O)[C@@H](O)[C@H]2O)c1N1C[C@@H](F)[C@@H](F)C1` [Compound 67, ((((2R,3S,4R,5R)-5-(6-chloro-5-cyano-4-((3S,4R)-3,4-difluoropyrrolidin-1-yl)-1H-pyrrolo[2,3-b]pyridin-1-yl)-3,4-dihydroxytetrahydrofuran-2-yl)methoxy)methyl)phosphonic acid], for which the IC50 (on Human CD73; in experiment [1]) was under 10 nM each time.

As for `N#Cc1nc2c(ccn2[C@@H]2O[C@H](COP(=O)(O)CP(=O)(O)O)[C@@H](O)[C@H]2O)c(NC2CC3(CC3)C2)c1Cl` [Compound 206], the IC50 (at Human CD73; in experiment [1]) was under 10 nM throughout.

Consider `N#Cc1c(Cl)nc2c(ccn2[C@@H]2O[C@H](COCP(=O)(O)O)[C@@H](O)[C@H]2O)c1N1CCC(F)(F)C1` [Compound 13, ((((2R,3S,4R,5R)-5-(6-chloro-5-cyano-4-(3,3-difluoropyrrolidin-1-yl)-1H-pyrrolo[2,3-b]pyridin-1-yl)-3,4-dihydroxytetrahydrofuran-2-yl)methoxy)methyl)phosphonic acid], for which the IC50 (on Human CD73; in experiment [1]) was under 10 nM throughout.

As for `C[C@H](Nc1c(C#N)c(Cl)nc2c1ccn2[C@@H]1O[C@H](COCP(=O)(O)O)[C@@H](O)[C@H]1O)c1ccc(F)cc1` [Compound 8], the IC50 (on Human CD73; in experiment [1]) was under 10 nM in each case.

With `N#Cc1c(Cl)nc2c(ccn2[C@@H]2O[C@H](COCP(=O)(O)O)[C@@H](O)[C@H]2O)c1N1CC2CC2C1` (stereo partly shown) [Compound 12], the IC50 (at Human CD73; in experiment [1]) was under 10 nM throughout.

Turning to `N#Cc1c(Cl)nc2c(ncn2[C@@H]2O[C@H](CS(=O)(=O)CP(=O)(O)O)[C@@H](O)[C@H]2O)c1NC1CC2CC2C1` (stereo partly shown) [Compound 127], the IC50 (at Human CD73; in experiment [1]) was under 10 nM each time.

Turning to `CN(c1c(C#N)c(Cl)nc2c1ccn2[C@@H]1O[C@H](CS(=O)(=O)CP(=O)(O)O)[C@@H](O)[C@H]1O)C1CC(F)(F)C1` [Compound 154], the IC50 (at Human CD73; in experiment [1]) was under 10 nM throughout.

In the case of `C[C@H](Nc1c(C#N)c(Cl)nc2c1cnn2[C@@H]1O[C@H](COP(=O)(O)CP(=O)(O)O)[C@@H](O)[C@H]1O)c1ccc(F)cc1` [Compound 247], the IC50 (on Human CD73; in experiment [1]) was under 10 nM throughout.

Regarding `N#Cc1c(Cl)nc2c(ncn2[C@@H]2O[C@H](COP(=O)(O)CP(=O)(O)O)[C@@H](O)[C@@H]2F)c1N1CCC(F)(F)C1` [Compound 97], the IC50 (at Human CD73; in experiment [1]) was under 10 nM throughout.

As for `N#Cc1c(Cl)nc2c(ccn2[C@@H]2O[C@H](COCP(=O)(O)O)[C@@H](O)[C@H]2O)c1N1CC[C@H](F)C1` [Compound 60], the IC50 (at Human CD73; in experiment [1]) was under 10 nM each time.

With `N#Cc1c(Cl)nc2c(cnn2[C@@H]2O[C@H](COCP(=O)(O)O)[C@@H](O)[C@H]2O)c1N1C[C@@H](F)[C@H](F)C1` [Compound 80], the IC50 (on Human CD73; in experiment [1]) was under 10 nM each time.

As for `N#Cc1c(Cl)nc2c(ncn2[C@@H]2O[C@H](CS(=O)(=O)CP(=O)(O)O)[C@@H](O)[C@H]2O)c1N1CCC(F)(F)C1` [Compound 118], the 50% inhibitory concentration (IC50) (at Human CD73; in experiment [1]) was under 10 nM in each case.

With `N#Cc1c(Cl)nc2c(cnn2[C@@H]2O[C@H](COP(=O)(O)CP(=O)(O)O)[C@@H](O)[C@H]2O)c1NC1CCCC1` [Compound 244], the IC50 (on Human CD73; in experiment [1]) was under 10 nM in each case.

On to `C[C@@H](Nc1c(C#N)c(Cl)nc2c1ccn2[C@@H]1O[C@H](COP(=O)(O)CP(=O)(O)O)[C@@H](O)[C@@H]1F)c1ccc(F)cc1` [Compound 229], for which the concentration for half-maximal inhibition (IC50) (on Human CD73; in experiment [1]) was under 10 nM in each case.

`N#Cc1c(Cl)nc2c(ccn2[C@@H]2O[C@H](COP(=O)(O)CP(=O)(O)O)[C@@H](O)[C@H]2O)c1NC1CCC1` [Compound 36]: the IC50 (at Human CD73; in experiment [1]) was under 10 nM each time.

Regarding `N#Cc1c(Cl)nc2c(ncn2[C@@H]2O[C@H](COCP(=O)(O)O)[C@@H](O)[C@H]2O)c1N1CCC(F)(F)C1` [Compound 94, ((((2R,3S,4R,5R)-5-(5-chloro-6-cyano-7-(3,3-difluoropyrrolidin-1-yl)-3H-imidazo[4,5-b]pyridin-3-yl)-3,4-dihydroxytetrahydrofuran-2-yl)methoxy)methyl)phosphonic acid], the IC50 (at Human CD73; in experiment [1]) was under 10 nM in each case.

As for `N#Cc1c(Cl)nc2c(cnn2[C@@H]2O[C@H](CS(=O)(=O)CP(=O)(O)O)[C@@H](O)[C@H]2O)c1NC1CC2CC2C1` (stereo partly shown) [Compound 128], the IC50 (at Human CD73; in experiment [1]) was under 10 nM throughout.

For the compound `N#Cc1c(Cl)nc2c(ccn2[C@@H]2O[C@H](COP(=O)(O)CP(=O)(O)O)[C@@H](O)[C@H]2O)c1NC1CC(F)(F)C1` [Compound 47], the IC50 (at Human CD73; in experiment [1]) was under 10 nM in each case.

Turning to `NC(=O)c1c(Cl)nc2c(ccn2C2O[C@H](COCP(=O)(O)O)[C@@H](O)[C@H]2O)c1NC1CCCC1` (stereo partly shown) [Compound 39], the IC50 on Human CD73 was under 10 nM; in experiment [1], 10 to 100 nM.

For the compound `N#Cc1c(Cl)nc2c(ccn2[C@@H]2O[C@H](COCP(=O)(O)O)[C@@H](O)[C@H]2O)c1NC1CC2(CC2)C1` [Compound 157], the IC50 (at Human CD73; in experiment [1]) was under 10 nM each time.

Turning to `N#Cc1c(Cl)nc2c(ncn2[C@@H]2O[C@H](COP(=O)(O)CP(=O)(O)O)[C@@H](O)[C@H]2O)c1N1CC2CC2C1` (stereo partly shown) [Compound 63], the IC50 (on Human CD73; in experiment [1]) was under 10 nM throughout.

Consider `N#Cc1c(Cl)nc2c(ccn2[C@@H]2O[C@H](CS(=O)(=O)CP(=O)(O)O)[C@@H](O)[C@H]2O)c1N1CC2CCCC2C1` (stereo partly shown) [Compound 21], for which the IC50 (at Human CD73; in experiment [1]) was under 10 nM in each case.

With `N#Cc1nc2c(ccn2[C@@H]2O[C@H](CS(=O)(=O)CP(=O)(O)O)[C@@H](O)[C@H]2O)c(N2C[C@@H](F)[C@@H](F)C2)c1Cl` [Compound 138], the IC50 on Human CD73 was 10 to 100 nM; in experiment [1], under 10 nM.

The values above are taken from US12331068B2, “Compositions and methods for inhibiting CD73” (Peloton Therapeutics, Inc., priority 2018, dated 2025).
